Source: PubChem BioAssay AID2060340 (Molecular Pharmacology Branch, DTP, NCI, 2025)
pIC50: −log10 of the molar value. Several values for one entry are separate records, joined by “and”; a condition that tells them apart may be missing. Equal values may be shown once.

System: 349418-098-R-PDC spheroids, viability, % test/control
Test: Anticancer human tumor 349418-098-R-PDC patient-derived lung adenocarcinoma cell line growth inhibition [IpAb]
Settings: spheroids with HUVEC and MSC; for viability, T/C: stronger effect = lower value
Summary of the method: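 Spheroids of 60% malignant cells, 25% HUVEC and 15% MSC were exposed to targeted agents combined with ipatasertib or abemaciclib. Doses started at or near clinical Cmax (10 microM when unknown) and fell in half-log steps.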

[1] = curve of first compound, second compound 0.1 µM
[2] = curve of first compound, second compound 0.316 µM
[3] = curve of first compound, second compound 1 µM
[4] = second compound 0.1 µM, first compound 0.0316 µM
[5] = second compound 0.1 µM, first compound 0.1 µM
[6] = second compound 0.316 µM, first compound 0.0316 µM
[7] = second compound 0.316 µM, first compound 0.1 µM
[8] = second compound 1 µM, first compound 0.0316 µM
[9] = second compound 1 µM, first compound 0.1 µM

`Cn1nccc1Nc1nccc(-c2ccn(C(CO)c3ccc(Cl)c(F)c3)c(=O)c2)n1` (configuration not stated) + CC(C)NCC(C(=O)N1CCN(c2ncnc3c2C(C)CC3O)CC1)c1ccc(Cl)cc1 was tested, and the pIC50 [1] was > 7.50, the pIC50 [2] was > 7.50 and the pIC50 [3] was > 7.50. The pIC50 (curve of first compound, second compound 3.16 µM) was > 7.50, the pIC50 (curve of first compound, second compound 10 µM) was > 7.50 and the viability, T/C [4] was 43.3%. For the same molecule, the viability, T/C [5] was 35.9%, the viability, T/C (second compound 0.1 µM, first compound 0.316 µM) was 33% and the viability, T/C (second compound 0.1 µM, first compound 1 µM) was 29.7%. The viability, T/C (second compound 0.1 µM, first compound 3.16 µM) was 21.5%, the viability, T/C (second compound 0.1 µM, first compound 10 µM) was 17.9% and the viability, T/C [6] was 23.7%. The viability, T/C [7] was 20.2%, the viability, T/C (second compound 0.316 µM, first compound 0.316 µM) was 17.9% and the viability, T/C (second compound 0.316 µM, first compound 1 µM) was 16%. The viability, T/C (second compound 0.316 µM, first compound 3.16 µM) was 16%, the viability, T/C (second compound 0.316 µM, first compound 10 µM) was 14.6% and the viability, T/C [8] was 10.3%. The viability, T/C [9] was 10.8%, the viability, T/C (second compound 1 µM, first compound 0.316 µM) was 8.91% and the viability, T/C (second compound 1 µM, first compound 1 µM) was 10.4%. For the same molecule, the viability, T/C (second compound 1 µM, first compound 3.16 µM) was 11.8%, the viability, T/C (second compound 1 µM, first compound 10 µM) was 11% and the viability, T/C (second compound 3.16 µM, first compound 0.0316 µM) was 7.69%. It also gave a viability, T/C (second compound 3.16 µM, first compound 0.1 µM) of 7.5%, a viability, T/C (second compound 3.16 µM, first compound 0.316 µM) of 6.61% and a viability, T/C (second compound 3.16 µM, first compound 1 µM) of 7%. For the same molecule, the viability, T/C (second compound 3.16 µM, first compound 3.16 µM) was 7.85%, the viability, T/C (second compound 3.16 µM, first compound 10 µM) was 8.65% and the viability, T/C (second compound 10 µM, first compound 0.0316 µM) was 5.18%. It also gave a viability, T/C (second compound 10 µM, first compound 0.1 µM) of 5.1%, a viability, T/C (second compound 10 µM, first compound 0.316 µM) of 4.68% and a viability, T/C (second compound 10 µM, first compound 1 µM) of 4.43%. For the same molecule, the viability, T/C (second compound 10 µM, first compound 3.16 µM) was 5.74% and the viability, T/C (second compound 10 µM, first compound 10 µM) was 7%.

For `Cc1nc(NC(=O)N2CCCC2C(N)=O)sc1-c1ccnc(C(C)(C)C(F)(F)F)c1` (configuration not stated), the viability, T/C (compound 0.0316 µM) was 87.3% and 95.4%, the viability, T/C (compound 0.1 µM) was 81.1% and 75.3% and the viability, T/C (compound 0.316 µM) was 46.4% and 43.7%. For the same molecule, the viability, T/C (compound 1 µM) was 18.9% and 22.8%, the viability, T/C (compound 3.16 µM) was 14% and 15.1% and the viability, T/C (compound 10 µM) was 11.2% and 14.1%. For the same molecule, the pIC50 (curve of compound) was 6.55 and 6.60.

`Cn1ncnc1[C@H]1c2n[nH]c(=O)c3cc(F)cc(c23)N[C@@H]1c1ccc(F)cc1` + CCN1CCN(Cc2ccc(Nc3ncc(F)c(-c4cc(F)c5nc(C)n(C(C)C)c5c4)n3)nc2)CC1 was tested, and the pIC50 (curve of first compound, second compound 0.01 µM) was 7.27, the pIC50 (curve of first compound, second compound 0.0316 µM) was > 9.50 and the pIC50 [1] was > 9.50. For the same molecule, the pIC50 [2] was > 9.50, the pIC50 [3] was > 9.50 and the viability, T/C (second compound 0.01 µM, first compound 0.000316 µM) was 70.5%. The viability, T/C (second compound 0.01 µM, first compound 0.001 µM) was 67.8%, the viability, T/C (second compound 0.01 µM, first compound 0.00316 µM) was 73.1% and the viability, T/C (second compound 0.01 µM, first compound 0.01 µM) was 64%. The viability, T/C (second compound 0.01 µM, first compound 0.0316 µM) was 55.2%, the viability, T/C (second compound 0.01 µM, first compound 0.1 µM) was 44.5% and the viability, T/C (second compound 0.0316 µM, first compound 0.000316 µM) was 38.7%. The viability, T/C (second compound 0.0316 µM, first compound 0.001 µM) was 50.5%, the viability, T/C (second compound 0.0316 µM, first compound 0.00316 µM) was 52.7% and the viability, T/C (second compound 0.0316 µM, first compound 0.01 µM) was 36%. It also gave a viability, T/C (second compound 0.0316 µM, first compound 0.0316 µM) of 36.5%, a viability, T/C (second compound 0.0316 µM, first compound 0.1 µM) of 25.2% and a viability, T/C (second compound 0.1 µM, first compound 0.000316 µM) of 28.1%. For the same molecule, the viability, T/C (second compound 0.1 µM, first compound 0.001 µM) was 22.9%, the viability, T/C (second compound 0.1 µM, first compound 0.00316 µM) was 23.9% and the viability, T/C (second compound 0.1 µM, first compound 0.01 µM) was 23.2%. The viability, T/C [4] was 17.5%, the viability, T/C [5] was 16.4% and the viability, T/C (second compound 0.316 µM, first compound 0.000316 µM) was 14.6%. It also gave a viability, T/C (second compound 0.316 µM, first compound 0.001 µM) of 19.8%, a viability, T/C (second compound 0.316 µM, first compound 0.00316 µM) of 16.2% and a viability, T/C (second compound 0.316 µM, first compound 0.01 µM) of 17.8%. For the same molecule, the viability, T/C [6] was 16.9%, the viability, T/C [7] was 13.1% and the viability, T/C (second compound 1 µM, first compound 0.000316 µM) was 16.2%. For the same molecule, the viability, T/C (second compound 1 µM, first compound 0.001 µM) was 17.6%, the viability, T/C (second compound 1 µM, first compound 0.00316 µM) was 16.2% and the viability, T/C (second compound 1 µM, first compound 0.01 µM) was 13%. For the same molecule, the viability, T/C [8] was 14.9% and the viability, T/C [9] was 12.8%.
